# Source: patent publication US11006631B2, “Substituted pyrimidinyloxy pyridine derivatives as herbicides” (FMC Corporation, priority 2015, dated 2021)
# Legend:
# Format in all cases: in vivo
# [1] = tested on: pigweed (Amaranthus retroflexus); assay: Test A preemergence, pigweed; conditions: 0 to 100 scale
# Summary of the method: (§1)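 Test chemicals in solvent with surfactant applied preemergence as directed soil spray, or postemergence to plants at one- to two-leaf stage (2–10 cm), in loam–sand soil. Injury visually rated versus untreated controls after about 10 days in greenhouse, on a 0 (no effect) to 100 (complete control) scale.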
# [2] = tested on: corn (Zea mays); assay: Test A postemergence, corn; conditions: 0 to 100 scale
# Summary of the method: as §1
# [3] = tested on: galium (catchweed bedstraw, Galium aparine); assay: Test C postemergence, galium
# Source text: (§2) Seeds of plant species selected from blackgrass (Alopecurus myosuroides), ryegrass, Italian (Italian ryegrass, Lolium multiflorum), wheat (winter wheat, Triticum aestivum), galium (catchweed bedstraw, Galium aparine), corn (Zea mays), crabgrass, large (large crabgrass, Digitaria sanguinalis), foxtail, giant (giant foxtail, Setaria faberii), lambsquarters (Chenopodium album), morningglory (Ipomoea coccinea), nutsedge, yellow (yellow nutsedge, Cyperus esculentus), pigweed (Amaranthus retroflexus), johnsongrass (Sorghum halepense), ragweed (common ragweed, Ambrosia elatior), soybean (Glycine max), barnyardgrass (Echinochloa crus-galli), oilseed rape (Brassica napus), waterhemp (common waterhemp, Amaranthus rudis), chickweed (common chickweed, Stellaria media), oat, wild (wild oat, Avena fatua), kochia (Kochia scoparia), and velvetleaf (Abutilon theophrasti) were planted in pots containing Redi-Earth® planting medium (Scotts Company, 14111 Scottslawn Road, Marysville, Ohio 43041) comprising spaghnum peat moss, vermiculite, wetting agent and starter nutrients and treated with postemergence applications of a test chemical formulated in a non-phytotoxic solvent mixture which included a surfactant. Plants ranged in height from 2 to 18 cm (1- to 4-leaf stage) for postemergence treatments. Treated plants and controls were maintained in a greenhouse for 13 to 15 days, after which time all species were compared to controls and visually evaluated. Plant response ratings, summarized in Table C, are based on a scale of 0 to 100 where 0 is no effect and 100 is complete control. A dash (-) response means no test result.
# [4] = tested on: corn (Zea mays); assay: Test C postemergence, corn
# Source text: as §2
# [5] = tested on: oilseed rape (Brassica napus); assay: Test C postemergence, oilseed rape
# Source text: as §2
# [6] = tested on: barnyardgrass (Echinochloa crus-galli); assay: Test A preemergence, barnyardgrass; conditions: 0 to 100 scale
# Summary of the method: as §1
# [7] = tested on: waterhemp (common waterhemp, Amaranthus rudis); assay: Test C postemergence, waterhemp
# Source text: as §2
# [8] = tested on: pigweed (Amaranthus retroflexus); assay: Test C postemergence, pigweed
# Source text: as §2
# [9] = tested on: pigweed (Amaranthus retroflexus); assay: Test A postemergence, pigweed; conditions: 0 to 100 scale
# Summary of the method: as §1
# [10] = tested on: oat, wild (wild oat, Avena fatua); assay: Test C postemergence, oat, wild
# Source text: as §2
# [11] = tested on: ducksalad (Heteranthera limosa); assay: Test B flooded paddy test, ducksalad; conditions: Flood, 250 g ai/ha; scale of 0 to 100
# Summary of the method: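 In-water application to pots flooded 3 cm deep, plants at 2-leaf stage. Held in greenhouse 13–15 days at constant flood depth. Scored 0–100 by eye against controls.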
# [12] = tested on: barnyardgrass (Echinochloa crus-galli); assay: Test C postemergence, barnyardgrass
# Source text: as §2
# [13] = tested on: ryegrass, Italian (Italian ryegrass, Lolium multiflorum); assay: Test A postemergence, ryegrass, Italian; conditions: 0 to 100 scale
# Summary of the method: as §1
# [14] = tested on: ragweed (common ragweed, Ambrosia elatior); assay: Test A postemergence, ragweed; conditions: 0 to 100 scale
# Summary of the method: as §1
# [15] = tested on: foxtail, giant (giant foxtail, Setaria faberii); assay: Test A postemergence, foxtail, giant; conditions: 0 to 100 scale
# Summary of the method: as §1
# [16] = tested on: kochia (Kochia scoparia); assay: Test C postemergence, kochia
# Source text: as §2
# [17] = tested on: galium (catchweed bedstraw, Galium aparine); assay: Test A postemergence, galium; conditions: 0 to 100 scale
# Summary of the method: as §1
# [18] = tested on: wheat (Triticum aestivum); assay: Test A postemergence, wheat; conditions: 0 to 100 scale
# Summary of the method: as §1
compound,measurement,setting,value
"FC(F)c1cc(-c2ncccc2Oc2ncc(Cl)cn2)on1 [Compound 5, 5-chloro-2-[[2-[3-(difluoromethyl)-5-isoxazolyl]-3-pyridinyl]oxy]pyrimidine]","Plant response rating, Pigweed",[1]; 31 g ai/ha,80
same,"Plant response rating, Pigweed",[1]; 125 g ai/ha,100
same,"Plant response rating, Corn",[2]; 31 g ai/ha,0
same,"Plant response rating, Corn",[2]; 125 g ai/ha,10
same,"Plant response rating, Galium",[3]; 16 g ai/ha,35
same,"Plant response rating, Galium",[3]; 31 g ai/ha,75
same,"Plant response rating, Galium",[3]; 62 g ai/ha,80
same,"Plant response rating, Galium",[3]; 125 g ai/ha,90
same,"Plant response rating, Corn",[4]; 16 g ai/ha,5
same,"Plant response rating, Corn",[4]; 31 g ai/ha,5
same,"Plant response rating, Corn",[4]; 62 g ai/ha,5
same,"Plant response rating, Corn",[4]; 125 g ai/ha,5
same,"Plant response rating, Oilseed Rape",[5]; 16 g ai/ha,5
same,"Plant response rating, Oilseed Rape",[5]; 31 g ai/ha,60
same,"Plant response rating, Oilseed Rape",[5]; 62 g ai/ha,60
same,"Plant response rating, Oilseed Rape",[5]; 125 g ai/ha,85
same,"Plant response rating, Barnyardgrass",[6]; 31 g ai/ha,0
same,"Plant response rating, Barnyardgrass",[6]; 125 g ai/ha,20
same,"Plant response rating, Waterhemp",[7]; 16 g ai/ha,60
same,"Plant response rating, Waterhemp",[7]; 31 g ai/ha,65
same,"Plant response rating, Waterhemp",[7]; 62 g ai/ha,75
same,"Plant response rating, Waterhemp",[7]; 125 g ai/ha,85
same,"Plant response rating, Pigweed",[8]; 16 g ai/ha,65
same,"Plant response rating, Pigweed",[8]; 31 g ai/ha,75
same,"Plant response rating, Pigweed",[8]; 62 g ai/ha,75
same,"Plant response rating, Pigweed",[8]; 125 g ai/ha,85
same,"Plant response rating, Pigweed",[9]; 31 g ai/ha,80
same,"Plant response rating, Pigweed",[9]; 125 g ai/ha,90
same,"Plant response rating, Oat, Wild",[10]; 16 g ai/ha,0
same,"Plant response rating, Oat, Wild",[10]; 31 g ai/ha,0
same,"Plant response rating, Oat, Wild",[10]; 62 g ai/ha,0
same,"Plant response rating, Oat, Wild",[10]; 125 g ai/ha,5
same,"Plant response rating, Ducksalad",[11],75
same,"Plant response rating, Barnyardgrass",[12]; 16 g ai/ha,0
same,"Plant response rating, Barnyardgrass",[12]; 31 g ai/ha,0
same,"Plant response rating, Barnyardgrass",[12]; 62 g ai/ha,5
same,"Plant response rating, Barnyardgrass",[12]; 125 g ai/ha,10
same,"Plant response rating, Ryegrass, Italian",[13]; 31 g ai/ha,0
same,"Plant response rating, Ryegrass, Italian",[13]; 125 g ai/ha,0
same,"Plant response rating, Ragweed",[14]; 31 g ai/ha,20
same,"Plant response rating, Ragweed",[14]; 125 g ai/ha,60
same,"Plant response rating, Foxtail, Giant",[15]; 31 g ai/ha,0
same,"Plant response rating, Foxtail, Giant",[15]; 125 g ai/ha,10
same,"Plant response rating, Kochia",[16]; 16 g ai/ha,90
same,"Plant response rating, Kochia",[16]; 31 g ai/ha,90
same,"Plant response rating, Kochia",[16]; 62 g ai/ha,90
same,"Plant response rating, Kochia",[16]; 125 g ai/ha,90
same,"Plant response rating, Galium",[17]; 31 g ai/ha,40
same,"Plant response rating, Galium",[17]; 125 g ai/ha,60
same,"Plant response rating, Wheat",[18]; 31 g ai/ha,0
same,"Plant response rating, Wheat",[18]; 125 g ai/ha,10
